Results on 103 molecules are retold here after ChEMBL document CHEMBL3507680, “University of Dundee, Gates Library screen for HepG2 cell viability”.

The series is described as follows: Human HepG2 cell viability assay in 384 well format. It is filed as toxicity, cell-based. Set-up: dose 125 nL, time 70.5 hour; cytotoxicity at 70.5 h: concentration not given beside the values. To be noted: HepG2 cells, read-out: Inhibition.

For `COc1cccc(CNC(=O)CCNS(=O)(=O)c2ccc(C)cc2)c1`, the cytotoxicity at 70.5 h is -3.42%.

For `Cc1cccnc1CNc1ccc(C(=O)N2CCc3ccccc32)cn1`, the cytotoxicity at 70.5 h came out at 0.0725%. The same measure for `CCCC(=O)N1CCC(Nc2ncc(Br)cn2)CC1`: 0.868%. The same measure for `CN(C)C1CCCN(C(=O)NCCC(=O)N2CCCCCC2)C1` (stereo not drawn): 0.671%; for `CCn1ccnc1CN1CCN(c2ncnc3ccsc23)CC1C` (stereo not drawn): 0.44%.

Consider `CCC(O)CN1CCN(C(=O)C2(c3ccc(C)c(OC)c3)CC2)CC1` (stereo not drawn), for which the cytotoxicity at 70.5 h came to 4.09%. The same measure for `COc1cc(C2(C(=O)N3CCN(CC(C)(C)O)CC3)CC2)ccc1C`: -0.73%. The same measure for `CC(C)OCCNC1(c2ccc(F)cc2)CCOCC1`: -3.2%. The same measure for `Cc1cc(CNC(=O)N2CCN(C(C)c3cccnc3)CC2)c(C)o1` (stereo not drawn): -0.922%; for `CCOCCCNC(=O)CCSCc1csc(C)n1`: -2.1%.

As for `CS(=O)(=O)NCC1CCCCN1C(=O)c1ccsc1` (stereo not drawn), the cytotoxicity at 70.5 h was -2.66%.

With `CN(Cc1ccccc1F)C(C(N)=O)c1ccccc1` (stereo not drawn), the cytotoxicity at 70.5 h was determined as 5.98%. As for `Cc1cc(C2CCCN2Cc2ccc(S(=O)(=O)N3CCCC3)o2)on1` (stereo not drawn), the figure is -102%; as for `CC(C)N(C)C(=O)c1ccc(CNc2cncc(Cl)n2)cc1`, -115%.

As to `CC(C)CC(=O)N1CCN(Cc2csc(-c3ncccn3)n2)CC1`, the cytotoxicity at 70.5 h is -5.3%. The same measure for `CCSc1cc(C(=O)NCCc2nnc(-c3ccco3)[nH]2)ccn1`: 20.1%. The same measure for `CC(C)C(C)NC(=O)Nc1cccc2c1CCN(S(C)(=O)=O)C2` (stereo not drawn): -2.03%.

On to `Cc1c(C(=O)NCC(C)C)nnn1-c1cccc2c1CCN(C(C)C)C2`, for which the cytotoxicity at 70.5 h is -0.43%. As for `CCS(=O)(=O)N1CCc2c(cccc2NC(=O)NCCO)C1`, the figure is 12.8%; as for `CC(=O)Nc1cccc(OCCNC(=O)N(C)Cc2ccncc2)c1`, 20.7%. The same measure for `COc1ccccc1OCCC(=O)NC1CCc2nc(C)cn2C1` (stereo not drawn): -3.16%. On to `Cc1cn2c(n1)CCC(NC(=O)CCC1CC1)C2` (stereo not drawn), for which the cytotoxicity at 70.5 h was -3.09%. As for `CCC(Nc1cccc(Oc2ccccn2)c1)C(N)=O` (stereo not drawn), the figure is -7.08%. `Cn1ncnc1CNC(=O)N(CCCO)C1CCc2ccccc21` (stereo not drawn): the cytotoxicity at 70.5 h was -6.34%. As for `COc1cc(C(=O)N(Cc2cccs2)C2CC2)cc2c1OCCO2`, the figure is 16%; as for `Cc1cn2c(n1)CCC(NC(=O)CCCOCc1ccccc1)C2` (stereo not drawn), -12.5%. The same measure for `CCc1nnc(CN2CCCC(Cn3nc(C)nc3C)C2)o1` (stereo not drawn): -11.6%; for `COc1ccc(CC(=O)NC2CCc3nc(C)cn3C2)cc1` (stereo not drawn): -7.41%; for `CN(C(=O)Cn1nc(-c2ccc(F)cc2)oc1=O)c1ccccc1`: -11.5%. The same measure for `Cc1cccnc1NC(=O)CNC(=O)c1ccccc1Cl`: -14.5%.

As for `O=C(NCC(O)c1ccc(F)cc1F)c1cccnc1O` (stereo not drawn), the cytotoxicity at 70.5 h is -15.5%. As for `O=C(NC1CC1)c1cc(NC(=O)N2CCCC2)ccc1Cl`, the figure is -13.8%; as for `O=C(NC1CC1)c1cc(NC(=O)N2CCOCC2)ccc1Cl`, -15.3%.

As to `O=C(c1ccncc1)N1CCCC1C1CCN(Cc2ccccc2)CC1` (stereo not drawn), the cytotoxicity at 70.5 h was determined as 0.737%.

Take `CC(=O)N1CCCN(C(=O)Cc2ccc3c(c2)OCO3)CC1`: the cytotoxicity at 70.5 h is -14.3%. Take `O=C(c1ccoc1)N1CCCC1C1CCN(Cc2ccccc2)CC1` (stereo not drawn): the cytotoxicity at 70.5 h amounted to 23.5%. For `Cc1nc(NC(=O)c2cccnc2N2CCOCC2)sc1C`, the cytotoxicity at 70.5 h was -13.9%. As for `O=C(CN1CCC(C(=O)c2cc(F)ccc2F)CC1)NC1CC1`, the figure is -12%; as for `CCOc1ncccc1C(=O)NCC(O)c1ccc(F)c(F)c1` (stereo not drawn), -6.21%. As for `COCCNC(=O)Nc1ccc(C(=O)N2CCSCC2)cc1C`, the figure is -12.4%; as for `Cc1n[nH]c(C2CN(C(=O)c3ccc4c(c3)CCCC4)CCO2)n1` (stereo not drawn), 21%; as for `Cc1n[nH]c(C2CN(C(=O)c3scnc3C)CCO2)n1` (stereo not drawn), -7.66%. As for `CC(=O)Nc1nc(CN2CCCC2Cn2cccn2)cs1` (stereo not drawn), the figure is -6.85%. As to `CCN(C(=O)C1CCC1)C(c1cccnc1)c1ccc2c(c1)CCO2` (stereo not drawn), the cytotoxicity at 70.5 h was found to be 38.8%. Consider `CCn1c(C)nnc1CN(C)C1CCN(CCc2cccs2)C1` (stereo not drawn), for which the cytotoxicity at 70.5 h is 10.5%. For the molecule `CCN1CCCN(c2ncccc2C(=O)N2CCCCC2)CC1`, the cytotoxicity at 70.5 h came out at 9.71%. In the case of `Cc1nc(CNCC2CCCN2c2cccnn2)oc1C` (stereo not drawn), the cytotoxicity at 70.5 h is -4.96%.

As to `CCOC(=O)N1CCN(CC(=O)Nc2ccc(F)cc2Cl)CC1`, the cytotoxicity at 70.5 h is -8.51%. The same measure for `CC(=O)c1c(F)cccc1N1CCC(NS(=O)(=O)c2ccccc2)CC1`: 1.15%. As to `O=C(Nc1nccs1)NC1CCOc2ccccc21` (stereo not drawn), the cytotoxicity at 70.5 h was -1.72%. The same measure for `Cc1ccc(S(=O)(=O)N(C)CC(N)=O)c(Cl)c1`: -10.6%; for `Cc1csc(N2CCN(C(=O)c3cc(Cl)c[nH]3)CC2)n1`: -0.933%; for `O=C(Cn1cc(NC(=O)c2ccc(F)cc2F)cn1)NC1CCCC1`: -4.45%. With `Cc1nn(C(C)C)c(C)c1NC(=O)c1ccc(F)cc1`, the cytotoxicity at 70.5 h was -2.59%. As for `Cc1noc(C)c1CNC(=O)N1CCN(CC2CC2)CC1`, the figure is -5.87%; as for `Cc1nn(C(C)C)c(C)c1NC(=O)c1cccnc1`, 1.88%; as for `CC1Cc2ccccc2N1Cc1occc1C(=O)NCC(=O)N(C)C` (stereo not drawn), -1.83%.

As for `CCCN(C)c1ccc(C(=O)Nc2c(C)nn(C(C)C)c2C)cc1`, the cytotoxicity at 70.5 h was -3.3%.

With `CCN(CC)c1ccc(NS(=O)(=O)c2cccnc2)cn1`, the cytotoxicity at 70.5 h is -1.98%. The same measure for `COc1cc(C)nc(N2CCN(C(=O)c3cc(Cl)c[nH]3)CC2)n1`: -1.56%; for `CNC(=O)COC(=O)c1ccoc1CN1c2ccccc2CC1C` (stereo not drawn): 0.373%. As for `CC(C)Oc1cccc(C(O)CNC(=O)Nc2cccs2)c1` (stereo not drawn), the figure is -4.72%; as for `CS(=O)(=O)c1ccc(OCCNCc2c(F)cccc2F)cc1`, -3.48%. The same measure for `CS(=O)(=O)c1ccc(OCCNCc2cccc(O)c2)cc1`: -0.254%; for `CCS(=O)(=O)N(C)C1CCN(c2cccc(F)c2C(C)=O)CC1`: -4.38%. Consider `CCN(C(=O)C1CC1)C(c1cccnc1)c1ccc2c(c1)CCO2` (stereo not drawn), for which the cytotoxicity at 70.5 h is -5.96%. As for `COC(=O)CN1CCN(c2cccc(C)c2)CC1`, the figure is -2.66%; as for `COCCNC(=O)c1ccoc1CN1c2ccccc2CC1C` (stereo not drawn), -6.26%; as for `COc1cccc(CN(C)C(=O)CCC(=O)c2ccccc2)c1OC`, -9.57%. As for `CCN(C)C(=O)CCC(=O)c1cccs1`, the figure is -7.69%.

As to `NC(=O)CSc1ccccc1NC(=O)C1CCCC1`, the cytotoxicity at 70.5 h is -5.87%. As for `N#Cc1ncn(CCC(=O)Nc2cccc(Cl)c2)n1`, the figure is -8.53%; as for `Cc1cnc(C(=O)N2CCN(Cc3csc(C)n3)CC2)cn1`, -6.71%; as for `CCS(=O)(=O)CCN1CCN(C(C)c2cccnc2)CC1` (stereo not drawn), 19.9%. As for `O=C(CCCc1ccccn1)N1CCSC2(CCCCC2)C1`, the figure is 18.8%. As for `Cc1n[nH]c(SCC(=O)NC(c2ccccn2)C(C)C)n1` (stereo not drawn), the figure is -0.841%; as for `O=C(COCC1CC1)N1CCSCC1`, 2.26%. Turning to `Cc1ccc(CNC(=O)CNCC2CCN(CCO)CC2)s1`, the cytotoxicity at 70.5 h was -1.79%.

As for `COc1ncccc1C(=O)N1CCCC1c1nc(-c2ccccc2)n[nH]1` (stereo not drawn), the cytotoxicity at 70.5 h is -0.047%. For the molecule `Cc1cc(C2CCCN2C(=O)CN(C)Cc2ccccc2)no1` (stereo not drawn), the cytotoxicity at 70.5 h was -5.16%.

For the molecule `CC(C)(O)CN1CCN(C(=O)COC2CCCC2)CC1`, the cytotoxicity at 70.5 h is -2.37%. The same measure for `O=C(c1ccncc1F)N1CCCC1c1nc(-c2ccccc2)n[nH]1` (stereo not drawn): -3.44%; for `Cc1cncc(C(=O)N2CCOc3nc(C)ccc32)c1`: -7.26%; for `Cc1cnn(C2CN(CC(=O)N(C)Cc3ccc(C)o3)C2)c1`: 39.8%. The same measure for `CC(C)NC(=O)CN1CCSC2(CCCCC2)C1`: 18.3%.

As to `CC(C)(C)OC(=O)N1CC(CC(=O)NCc2ccsc2)C1`, the cytotoxicity at 70.5 h is 7.8%. As to `Cc1cc(CNC(=O)CN2CCN(C(=O)OC(C)(C)C)CC2)ccc1F`, the cytotoxicity at 70.5 h amounted to 13.3%. The same measure for `CC(=O)N(C)c1nc(CN2CCN(Cc3nccn3C)CC2)cs1`: 10.2%; for `Cc1cn2nc(N3CCCC3C(=O)N3CCSCC3)sc2n1` (stereo not drawn): -8.52%; for `Cc1cc(CNC(=O)Nc2cc(F)cc(N3CCCC3)c2)no1`: -13.7%. For `O=C(Cc1ccccc1Cl)Nc1ccn(CCN2CCOCC2)n1`, the cytotoxicity at 70.5 h is -12.9%. On to `CSc1ccsc1C(=O)NS(=O)(=O)c1cccc(C#N)c1`, for which the cytotoxicity at 70.5 h is -13.1%. Regarding `O=C1CCc2cc(S(=O)(=O)NC(=O)c3ccc4c(c3)OCO4)ccc2N1`, the cytotoxicity at 70.5 h is -15.2%. As for `Cn1c(CN2CCN(CC3CCCO3)CC2)nc2ccccc21` (stereo not drawn), the figure is -9.16%; as for `CCc1cc(CNC(=O)NCc2ccc(N3CCCCC3)cc2)on1`, -7.79%. Turning to `Cc1cnn(C2CN(CC(=O)N(C)Cc3cccs3)C2)c1`, the cytotoxicity at 70.5 h was -11.5%.

As to `Clc1ccc2cccnc2c1CN1CCn2c(nnc2C2CC2)C1`, the cytotoxicity at 70.5 h was -13.3%.

Take `Nc1nc(CN2CCN(c3nccs3)CC2)cs1`: the cytotoxicity at 70.5 h is -5.16%. As for `Fc1cccc(Cl)c1CN1CCn2c(nnc2C2CC2)C1`, the figure is -10.3%; as for `CC(=O)N1CCCc2ccc(S(=O)(=O)N3CCCCC3C)cc21` (stereo not drawn), -3.92%. As for `CCOc1cccc(CCNC(=O)Cc2ccn[nH]2)n1`, the figure is -7.14%; as for `COCc1ccccc1C(=O)NS(=O)(=O)c1ccc2c(c1)CCC(=O)N2`, -9.29%; as for `Cc1nnc(N2CCCC2)c(C(N)=O)c1C`, -6.33%.
